Legend:
PcaKN.Ani = biological target: T1, PcaKN.Ani (Neisseria animalis, UniProt A0A5P3MSQ9); test: uptake-coupled PcaV-sfGFP biosensor dose response in P. putida KT2440 delta-pcaK; assay type: cell-based
T1 construct: gene D0T90_09335; full-length transporter expressed in Pseudomonas putida KT2440 delta-pcaK with PcaV-sfGFP reporter plasmid; 4,5-cleavage pathway operon
From the text: uptake-coupled PcaV-sfGFP biosensor dose response in P. putida KT2440 delta-pcaK on PcaKN.Ani

PcaKB.Mas = test system: T2, PcaKB.Mas; test: as above; assay type: cell-based, Bacillus massiliglaciei; details: whole-cell transporter-biosensor EC50 (reflects transporter plus PcaV sensor); LB, 3 h, 0.01-5 mM PCA
T2 construct: gene pcaK; full-length transporter expressed in Pseudomonas putida KT2440 delta-pcaK with PcaV-sfGFP reporter plasmid; 2,3-cleavage pathway operon
From the text: uptake-coupled PcaV-sfGFP biosensor dose response in P. putida KT2440 delta-pcaK on PcaKB.Mas

PcakA.Ant = biological target: T3, PcakA.Ant (Comamonas antarctica, UniProt A0A6N1X255); test: as above; assay type: cell-based
T3 construct: gene HUK68_11000; full-length transporter expressed in Pseudomonas putida KT2440 delta-pcaK with PcaV-sfGFP reporter plasmid; 4,5-cleavage pathway operon
T3 sequence (A0A6N1X255 1-458): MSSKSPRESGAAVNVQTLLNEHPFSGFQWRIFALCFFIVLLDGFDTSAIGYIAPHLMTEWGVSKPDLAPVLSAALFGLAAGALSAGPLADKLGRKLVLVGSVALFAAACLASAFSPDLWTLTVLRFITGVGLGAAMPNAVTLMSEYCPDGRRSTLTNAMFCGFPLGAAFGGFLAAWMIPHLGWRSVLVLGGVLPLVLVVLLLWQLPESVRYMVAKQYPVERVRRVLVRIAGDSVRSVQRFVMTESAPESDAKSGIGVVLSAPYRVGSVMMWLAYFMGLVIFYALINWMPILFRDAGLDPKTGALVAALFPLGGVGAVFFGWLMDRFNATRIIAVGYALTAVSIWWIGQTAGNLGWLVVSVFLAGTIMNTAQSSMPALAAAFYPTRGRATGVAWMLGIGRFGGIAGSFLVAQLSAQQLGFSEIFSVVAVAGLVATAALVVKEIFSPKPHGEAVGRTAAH
From the text: uptake-coupled PcaV-sfGFP biosensor dose response in P. putida KT2440 delta-pcaK on PcakA.Ant

PcaKP.Put = biological target: T4, PcaKP.Put (Pseudomonas putida, UniProt Q51955); test: as above; assay type: cell-based
T4 construct: gene pcaK; full-length transporter expressed in Pseudomonas putida KT2440 delta-pcaK with PcaV-sfGFP reporter plasmid
T4 sequence (Q51955 1-448): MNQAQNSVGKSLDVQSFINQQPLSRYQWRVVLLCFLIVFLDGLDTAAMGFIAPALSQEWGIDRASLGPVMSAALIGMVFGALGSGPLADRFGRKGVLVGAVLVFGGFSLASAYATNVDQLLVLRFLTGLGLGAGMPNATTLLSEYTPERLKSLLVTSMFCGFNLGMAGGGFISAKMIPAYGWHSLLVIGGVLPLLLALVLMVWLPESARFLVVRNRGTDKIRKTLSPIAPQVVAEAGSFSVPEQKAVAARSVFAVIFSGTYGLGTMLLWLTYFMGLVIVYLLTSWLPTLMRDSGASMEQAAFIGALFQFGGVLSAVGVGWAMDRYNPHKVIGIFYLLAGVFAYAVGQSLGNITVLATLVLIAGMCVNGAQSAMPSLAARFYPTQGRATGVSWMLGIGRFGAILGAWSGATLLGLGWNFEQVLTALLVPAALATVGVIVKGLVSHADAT
From the text: uptake-coupled PcaV-sfGFP biosensor dose response in P. putida KT2440 delta-pcaK on PcaKP.Put

TphKP.Um = test system: T5, TphKP.Um; test: uptake-coupled TphR-sfGFP biosensor dose response in P. putida KT2440; assay type: cell-based, Pseudomonas umsongensis; details: whole-cell transporter-biosensor EC50 (reflects transporter plus TphR sensor); LB, 16 h, 0.005-1 mM TPA
T5 construct: gene tphK; full-length transporter expressed in Pseudomonas putida KT2440 with TphR-sfGFP reporter plasmid
From the text: uptake-coupled TphR-sfGFP biosensor dose response in P. putida KT2440 on TphKP.Um

TphKP.Man = biological target: T6, TphKP.Man (Pseudomonas mandelii, UniProt A0A024E7Y9); test: as above; assay type: cell-based
T6 construct: gene tpaK; full-length transporter expressed in Pseudomonas putida KT2440 with TphR-sfGFP reporter plasmid
From the text: uptake-coupled TphR-sfGFP biosensor dose response in P. putida KT2440 on TphKP.Man

TphKS.Nap = test system: T7, TphKS.Nap; test: as above; assay type: cell-based, Sphingobium naphthae; details: whole-cell transporter-biosensor EC50 (reflects transporter plus TphR sensor); LB, 16 h, 0.005-1 mM TPA
T7 construct: gene tphK; full-length transporter expressed in Pseudomonas putida KT2440 with TphR-sfGFP reporter plasmid
From the text: uptake-coupled TphR-sfGFP biosensor dose response in P. putida KT2440 on TphKS.Nap

TphKB.Pac = test system: T8, TphKB.Pac; test: as above; assay type: cell-based, Bradyrhizobium pachyrhizi; details: whole-cell transporter-biosensor EC50 (reflects transporter plus TphR sensor); LB, 16 h, 0.005-1 mM TPA
T8 construct: gene tphK; full-length transporter expressed in Pseudomonas putida KT2440 with TphR-sfGFP reporter plasmid
From the text: uptake-coupled TphR-sfGFP biosensor dose response in P. putida KT2440 on TphKB.Pac

TphKS.Hor = test system: T9, TphKS.Hor; test: as above; assay type: cell-based, Saccharopolyspora hordei; details: whole-cell transporter-biosensor EC50 (reflects transporter plus TphR sensor); LB, 16 h, 0.005-1 mM TPA
T9 construct: gene tphK; full-length transporter expressed in Pseudomonas putida KT2440 with TphR-sfGFP reporter plasmid
From the text: uptake-coupled TphR-sfGFP biosensor dose response in P. putida KT2440 on TphKS.Hor

TphKR.Pyr = test system: T10, TphKR.Pyr; test: as above; assay type: cell-based, Rhodococcus pyridinivorans; details: whole-cell transporter-biosensor EC50 (reflects transporter plus TphR sensor); LB, 16 h, 0.005-1 mM TPA
T10 construct: gene tphK; full-length transporter expressed in Pseudomonas putida KT2440 with TphR-sfGFP reporter plasmid
From the text: uptake-coupled TphR-sfGFP biosensor dose response in P. putida KT2440 on TphKR.Pyr

TphKR.Op = biological target: T11, TphKR.Op (Rhodococcus opacus, UniProt A0A1B1KG70); test: as above; assay type: cell-based
T11 construct: gene tpaK; full-length transporter expressed in Pseudomonas putida KT2440 with TphR-sfGFP reporter plasmid
T11 sequence (A0A1B1KG70 1-459): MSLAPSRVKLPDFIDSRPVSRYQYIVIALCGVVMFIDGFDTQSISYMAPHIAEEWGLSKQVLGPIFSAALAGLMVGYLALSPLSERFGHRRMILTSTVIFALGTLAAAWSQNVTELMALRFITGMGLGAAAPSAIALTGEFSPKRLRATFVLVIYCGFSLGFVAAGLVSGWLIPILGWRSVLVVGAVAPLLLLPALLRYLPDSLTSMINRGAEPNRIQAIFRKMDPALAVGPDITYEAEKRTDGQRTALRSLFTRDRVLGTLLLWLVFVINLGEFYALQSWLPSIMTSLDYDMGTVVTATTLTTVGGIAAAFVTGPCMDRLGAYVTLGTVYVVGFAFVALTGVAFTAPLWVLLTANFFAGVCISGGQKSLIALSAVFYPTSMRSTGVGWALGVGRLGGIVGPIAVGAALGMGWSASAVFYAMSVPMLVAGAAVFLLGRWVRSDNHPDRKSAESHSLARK
From the text: uptake-coupled TphR-sfGFP biosensor dose response in P. putida KT2440 on TphKR.Op

T1 sequence (A0A5P3MSQ9 entry or part of it): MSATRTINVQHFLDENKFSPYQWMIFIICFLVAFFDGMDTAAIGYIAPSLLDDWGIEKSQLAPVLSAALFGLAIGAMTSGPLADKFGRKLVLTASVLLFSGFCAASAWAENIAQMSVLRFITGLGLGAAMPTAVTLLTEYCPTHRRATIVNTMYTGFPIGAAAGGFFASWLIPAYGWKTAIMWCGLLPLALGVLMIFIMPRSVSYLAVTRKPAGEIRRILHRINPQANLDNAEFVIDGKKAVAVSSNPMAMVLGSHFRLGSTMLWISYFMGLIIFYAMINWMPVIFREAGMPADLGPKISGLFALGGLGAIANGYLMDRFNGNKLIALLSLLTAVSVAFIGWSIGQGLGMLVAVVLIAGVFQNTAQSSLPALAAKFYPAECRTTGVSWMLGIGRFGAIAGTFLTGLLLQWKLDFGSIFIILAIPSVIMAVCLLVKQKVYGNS

SMILES	EC50 (PcaKN.Ani) [µM]	EC50 (PcaKB.Mas) [µM]	EC50 (PcakA.Ant) [µM]	EC50 (PcaKP.Put) [µM]	EC50 (TphKP.Um) [µM]	EC50 (TphKP.Man) [µM]	EC50 (TphKS.Nap) [µM]	EC50 (TphKB.Pac) [µM]	EC50 (TphKS.Hor) [µM]	EC50 (TphKR.Pyr) [µM]	EC50 (TphKR.Op) [µM]
O=C(O)c1ccc(O)c(O)c1 [P2, protocatechuic acid]	847	1710	735	2050	–	–	–	–	–	–	–
O=C(O)c1ccc(C(=O)O)cc1 [T3, terephthalic acid]	–	–	–	–	19.1	14.4	1.96	17.1	39.6	10.7	79.2

From PMC12577307, “Genetically encoded biosensor enabled mining, characterisation and engineering of aromatic acid MFS transporters” (Journal of Biological Engineering, 2025)
